Results reported in patent US9012443B2 (Amgen Inc., priority 2011, dated 2015).

How the values were obtained:
Nav 1.7 [1] = molecular target: T1, Nav 1.7 (Homo sapiens (Human), UniProt Q15858); assay: Nav 1.7 IWQ in vitro assay (IonWorks Quattro population patch-clamp); format: cell-based; conditions: for IC50: 293 cells stably transfected with Nav 1.7
Method in brief: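 Percent block, measured in duplicate, came from peak minus end-of-pulse current on the 26th −20 mV step, and IC50 was fitted against concentration. Stably transfected 293 cells were recorded in population patch-clamp mode before and after a single test concentration, which was added over 3–8 min while cells were unclamped.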

Nav 1.7 [2] = molecular target: T1, Nav 1.7; assay: Nav 1.7 in vitro PX assay (PatchXpress whole cell voltage clamp); format: cell-based; conditions: 293 cells, human Nav1.7, partially inactivated state; read-out: Nav1.7 PX IC50 IP
Method in brief: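 Partially inactivated channel state (holding potential for 20–50% inactivation) probed in human Nav1.7-transfected 293 cells by automated patch clamp, test pulse −10 mV for 20 msec.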

[3] = second part of table, read-out: Nav1.7 IWQ IC50 IP
[4] = first part of table, read-out: Nav 1.7 IWQ IC50

T1 sequence (Q15858 whole entry): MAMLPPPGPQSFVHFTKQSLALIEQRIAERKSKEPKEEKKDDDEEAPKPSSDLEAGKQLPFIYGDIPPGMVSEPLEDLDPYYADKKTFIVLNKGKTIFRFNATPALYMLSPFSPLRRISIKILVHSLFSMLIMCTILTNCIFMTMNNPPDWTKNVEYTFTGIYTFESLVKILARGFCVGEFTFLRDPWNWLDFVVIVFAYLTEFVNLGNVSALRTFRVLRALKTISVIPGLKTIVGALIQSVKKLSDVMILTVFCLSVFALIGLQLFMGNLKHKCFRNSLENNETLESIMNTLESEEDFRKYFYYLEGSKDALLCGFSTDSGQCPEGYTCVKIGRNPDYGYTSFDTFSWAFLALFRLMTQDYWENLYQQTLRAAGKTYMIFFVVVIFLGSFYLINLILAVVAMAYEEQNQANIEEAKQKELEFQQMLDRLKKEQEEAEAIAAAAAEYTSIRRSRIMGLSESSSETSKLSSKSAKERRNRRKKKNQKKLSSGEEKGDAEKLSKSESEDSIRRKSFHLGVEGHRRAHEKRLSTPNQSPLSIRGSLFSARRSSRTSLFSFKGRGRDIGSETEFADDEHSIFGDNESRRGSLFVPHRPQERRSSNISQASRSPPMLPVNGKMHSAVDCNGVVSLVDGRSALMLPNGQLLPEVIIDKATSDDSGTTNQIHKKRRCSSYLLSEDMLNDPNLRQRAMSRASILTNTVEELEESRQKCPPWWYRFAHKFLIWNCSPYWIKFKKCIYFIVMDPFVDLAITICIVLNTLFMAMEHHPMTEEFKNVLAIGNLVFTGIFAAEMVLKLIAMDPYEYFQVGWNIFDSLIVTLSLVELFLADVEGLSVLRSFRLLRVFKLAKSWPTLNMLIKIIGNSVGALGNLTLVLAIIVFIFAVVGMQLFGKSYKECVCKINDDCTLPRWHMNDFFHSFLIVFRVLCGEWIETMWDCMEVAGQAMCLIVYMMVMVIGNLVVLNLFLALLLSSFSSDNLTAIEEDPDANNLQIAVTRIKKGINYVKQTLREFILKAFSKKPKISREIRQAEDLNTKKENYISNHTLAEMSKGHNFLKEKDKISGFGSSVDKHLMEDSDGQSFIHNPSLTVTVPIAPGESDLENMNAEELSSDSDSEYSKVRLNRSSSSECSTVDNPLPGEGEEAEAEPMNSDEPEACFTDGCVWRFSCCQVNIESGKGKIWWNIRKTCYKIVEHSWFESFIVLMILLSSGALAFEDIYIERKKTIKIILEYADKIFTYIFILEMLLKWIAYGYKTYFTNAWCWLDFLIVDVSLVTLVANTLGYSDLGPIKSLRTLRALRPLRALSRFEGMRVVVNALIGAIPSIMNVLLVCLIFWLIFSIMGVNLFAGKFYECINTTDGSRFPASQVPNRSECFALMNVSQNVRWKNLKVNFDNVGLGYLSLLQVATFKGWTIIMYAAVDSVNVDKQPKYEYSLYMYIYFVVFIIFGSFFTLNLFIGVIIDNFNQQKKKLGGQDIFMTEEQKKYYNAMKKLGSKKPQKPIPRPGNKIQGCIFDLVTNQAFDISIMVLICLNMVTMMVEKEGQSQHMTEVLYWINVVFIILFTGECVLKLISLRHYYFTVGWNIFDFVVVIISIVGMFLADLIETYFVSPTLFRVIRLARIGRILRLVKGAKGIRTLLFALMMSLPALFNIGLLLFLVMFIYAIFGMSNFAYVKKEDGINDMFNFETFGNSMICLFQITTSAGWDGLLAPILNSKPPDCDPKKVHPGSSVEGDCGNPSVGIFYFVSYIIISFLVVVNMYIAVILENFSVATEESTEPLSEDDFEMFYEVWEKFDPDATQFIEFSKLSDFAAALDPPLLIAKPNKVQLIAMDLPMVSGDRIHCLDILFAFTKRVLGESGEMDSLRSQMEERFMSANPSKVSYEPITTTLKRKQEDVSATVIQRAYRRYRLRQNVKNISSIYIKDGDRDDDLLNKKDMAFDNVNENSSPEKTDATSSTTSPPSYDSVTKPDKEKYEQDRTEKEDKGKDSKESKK

Structure (SMILES) | IC50 (Nav 1.7 [1]; [3]) [µM] | IC50 (Nav 1.7 [2]) [µM] | IC50 (Nav 1.7 [1]; [4]) [µM] | Nav1.7 Single Point Data IWQ (at […]) (%) (Nav 1.7 [1])
O=S(=O)(Nc1ncns1)c1ccc2c(N3CCCC3c3ccccc3)nccc2c1 (stereo not drawn) [Example 236, 1-(2-PHENYLPYRROLIDIN-1-YL)-N-(1,2,4-THIADIAZOL-5-YL)ISOQUINOLINE-6-SULFONAMIDE] | 0.13 | 0.43 | – | –
CCOc1ccccc1-c1nccc2cc(S(=O)(=O)Nc3ccncn3)ccc12 [Example 173, 1-(2-ETHOXYPHENYL)-N-(PYRIMIDIN-4-YL)ISOQUINOLINE-6-SULFONAMIDE] | 0.43 | 8.75 | – | –
Cn1c(-c2cccc3cc(S(=O)(=O)Nc4ccncn4)ccc23)cc2cc(F)ccc21 [Example 106] | 1.6 | 3.84 | – | –
O=S(=O)(Nc1ccncn1)c1ccc2c(OCc3cccc4[nH]ncc34)nccc2c1 [Example 136, 1-((1H-INDAZOL-4-YL)METHOXY)-N-(PYRIMIDIN-4-YL)ISOQUINOLINE-6-SULFONAMIDE] | 3.59 | > 30 | – | –
COc1cc(C(F)(F)F)ccc1-c1nc(N(C)C)cc2cc(S(=O)(=O)Nc3nccs3)ccc12 [Example 223, 3-(DIMETHYLAMINO)-1-(2-METHOXY-4-(TRIFLUOROMETHYL)PHENYL)-N-(THIAZOL-2-YL)ISOQUINOLINE-6-SULFONAMIDE] | 1.1 | 6.52 | – | –
COc1cc(F)ccc1-c1nccc2cc(S(=O)(=O)Nc3ccncn3)ccc12 [Example 167, 1-(4-FLUORO-2-METHOXYPHENYL)-N-(PYRIMIDIN-4-YL)ISOQUINOLINE-6-SULFONAMIDE] | 0.05 | 4.26 | – | –
CN1CC=C(c2cc(C(F)(F)F)ccc2-c2cccc3cc(S(=O)(=O)Nc4ccncn4)ccc23)CC1 [Example 76] | – | – | 0.07 | –
Cc1cnc(OCCN(C)C)c(-c2nccc3cc(S(=O)(=O)Nc4ccncn4)ccc23)c1 [Example 382, 1-(2-(2-(DIMETHYLAMINO)ETHOXY)-5-METHYLPYRIDIN-3-YL)-N-(PYRIMIDIN-4-YL)ISOQUINOLINE-6-SULFONAMIDE] | – | – | – | 27.8
COc1cc(C(F)(F)F)ccc1-c1c(O)ncc2cc(S(=O)(=O)Nc3nccs3)ccc12 [Example 545, 3-HYDROXY-4-(2-METHOXY-4-(TRIFLUOROMETHYL)PHENYL)-N-(THIAZOL-2-YL)ISOQUINOLINE-7-SULFONAMIDE] | – | – | – | 23.7
O=C1CCCN1c1cccc2cc(S(=O)(=O)Nc3ncns3)ccc12 [Example 93] | 7.97 | – | – | –
COc1cc(C(F)(F)F)ccc1-c1nccc2cc(S(=O)(=O)Nc3ccncn3)cnc12 [Example 292, 8-(2-METHOXY-4-(TRIFLUOROMETHYL)PHENYL)-N-(PYRIMIDIN-4-YL)-1,7-NAPHTHYRIDINE-3-SULFONAMIDE] | 3.94 | – | – | –
Cn1ccc2cccc(-c3nccc4cc(S(=O)(=O)Nc5ccncn5)ccc34)c21 [Example 164, 1-(1-METHYL-1H-INDOL-7-YL)-N-(PYRIMIDIN-4-YL)ISOQUINOLINE-6-SULFONAMIDE] | 6.61 | – | – | –
O=S(=O)(Nc1nccs1)c1ccc2c(-c3ccc(C(F)(F)F)cc3-c3ccncc3)nccc2c1 [Example 71, 1-(2-(PYRIDIN-4-YL)-4-(TRIFLUOROMETHYL)PHENYL)-N-(THIAZOL-2-YL)ISOQUINOLINE-6-SULFONAMIDE] | – | – | 0.02 | –
O=S(=O)(Nc1ccncn1)c1ccc2c(-c3ccc(C(F)(F)F)cc3Br)nccc2c1 [Example 66, 1-(2-BROMO-4-(TRIFLUOROMETHYL)PHENYL)-N-(PYRIMIDIN-4-YL)ISOQUINOLINE-6-SULFONAMIDE] | – | – | 0.12 | –
O=S(=O)(Nc1ncns1)c1ccc2c(-c3ccncc3)cccc2c1 [Example 7] | – | – | 7.76 | –
CN1CC=C(c2cc(C(F)(F)F)ccc2-c2nccc3cc(S(=O)(=O)Nc4nccs4)ccc23)CC1 [Example 72, 1-(2-(1-METHYL-1,2,3,6-TETRAHYDROPYRIDIN-4-YL)-4-(TRIFLUOROMETHYL)PHENYL)-N-(THIAZOL-2-YL)ISOQUINOLINE-6-SULFONAMIDE] | – | – | 0.06 | –
Cc1nn(-c2ccccc2)nc1COc1nccc2cc(S(=O)(=O)Nc3ccncn3)ccc12 [Example 138, 1-((5-METHYL-2-PHENYL-2H-1,2,3-TRIAZOL-4-YL)METHOXY)-N-(PYRIMIDIN-4-YL)ISOQUINOLINE-6-SULFONAMIDE] | 3.96 | – | – | –
O=S(=O)(Nc1ncns1)c1ccc2c(N3CCOCC3)cccc2c1 [Example 13] | – | – | 3.56 | –
CCC1CN(c2cccc3cc(S(=O)(=O)Nc4ncns4)ccc23)CCO1 (stereo not drawn) [Example 18] | – | – | 0.71 | –
CC1CN(c2cccc3cc(S(=O)(=O)Nc4ncns4)ccc23)CCO1 (stereo not drawn) [Example 16] | – | – | 2.37 | –

The next lines start with the values.

IC50 (Nav 1.7 [1]; [3]) [µM] | IC50 (Nav 1.7 [2]) [µM] | IC50 (Nav 1.7 [1]; [4]) [µM] | Nav1.7 Single Point Data IWQ (at […]) (%) (Nav 1.7 [1]) | Structure (SMILES)
> 10 | – | – | 35 | Cn1ncc2cccc(-c3nccc4cc(S(=O)(=O)Nc5ccncn5)ccc34)c21 [Example 306, 1-(1-METHYL-1H-INDAZOL-7-YL)-N-(PYRIMIDIN-4-YL)ISOQUINOLINE-6-SULFONAMIDE]
> 10 | – | – | 47 | Cn1nc(C(F)(F)F)cc1-c1nccc2cc(S(=O)(=O)Nc3ccncn3)ccc12 [Example 312, 1-(1-METHYL-3-(TRIFLUOROMETHYL)-1H-PYRAZOL-5-YL)-N-(PYRIMIDIN-4-YL)ISOQUINOLINE-6-SULFONAMIDE]
– | – | – | 34.6 | O=S(=O)(Nc1ccncn1)c1ccc2c(-c3ccc(N4CCCCC4)c(F)c3F)nccc2c1 [Example 432, 1-(2,3-DIFLUORO-4-(PIPERIDIN-1-YL)PHENYL)-N-(PYRIMIDIN-4-YL)ISOQUINOLINE-6-SULFONAMIDE]
> 10 | – | – | 40 | Cc1c(-c2nccc3cc(S(=O)(=O)Nc4ccncn4)ccc23)ccc2c1cnn2C [Example 307]
– | – | – | 36.4 | O=S(=O)(Nc1ccncn1)c1ccc2c(N3CCCC(c4cccc(F)c4)C3)nccc2c1 (stereo not drawn) [Example 402, 1-(3-(3-FLUOROPHENYL)PIPERIDIN-1-YL)-N-(PYRIMIDIN-4-YL)ISOQUINOLINE-6-SULFONAMIDE]
> 10 | – | – | 40 | O=S(=O)(Nc1ccncn1)c1ccc2c(OCCn3cccc3)nccc2c1 [Example 303, 1-(2-(1H-PYRROL-1-YL)ETHOXY)-N-(PYRIMIDIN-4-YL)ISOQUINOLINE-6-SULFONAMIDE]
> 10 | – | – | 20 | O=S(=O)(Nc1ccncn1)c1ccc2c(OCCCc3cn[nH]c3C(F)(F)F)nccc2c1 [Example 302, N-(PYRIMIDIN-4-YL)-1-(3-(5-(TRIFLUOROMETHYL)-1H-PYRAZOL-4-YL)PROPOXY)ISOQUINOLINE-6-SULFONAMIDE]
> 10 | – | – | 23 | O=S(=O)(Nc1ccncn1)c1ccc2c(OCCn3ccnn3)nccc2c1 [Example 296, 1-(2-(1H-1,2,3-TRIAZOL-1-YL)ETHOXY)-N-(PYRIMIDIN-4-YL)ISOQUINOLINE-6-SULFONAMIDE]
> 10 | – | – | 38 | O=S(=O)(Nc1ccncn1)c1ccc2c(OCc3cc4n(n3)CCCO4)nccc2c1 [Example 297, 1-((6,7-DIHYDRO-5H-PYRAZOLO[5,1-B][1,3]OXAZIN-2-YL)METHOXY)-N-(PYRIMIDIN-4-YL)ISOQUINOLINE-6-SULFONAMIDE]
– | – | – | 27 | Cc1nsc(NS(=O)(=O)c2ccc3c(-c4ccc(Cl)cc4C)nccc3c2)n1 [Example 356]
> 10 | – | – | 46 | O=S(=O)(Nc1ccncn1)c1ccc2c(-c3cccc4cccnc34)nccc2c1 [Example 310, N-(PYRIMIDIN-4-YL)-1-(QUINOLIN-8-YL)ISOQUINOLINE-6-SULFONAMIDE]
